Patent US20230278972A1, “SUBSTITUTED HALOALKYL SULFONANILIDE HERBICIDES” (FMC Corporation, priority 2020, published 2023)

Legend:
Type in all cases: in vivo
[1] = tested on: barnyardgrass (Echinochloa crus-galli); assay: Test A preemergence, barnyardgrass; settings: Preemergence; for Barnyardgrass plant response rating: 125 g ai/ha, visual injury on 0 to 100 scale (0 no effect, 100 complete control), approximately 10 days; for Plant response rating, Barnyardgrass: 500 g ai/ha, 0 to 100 scale (0 no effect, 100 complete control)
Text: (§1) Seeds of plant species selected from barnyardgrass (Echinochloa crus-galli), kochia (Bassia scoparia), ragweed (common ragweed, Ambrosia artemisiifolia), Ryegrass, Italian (Italian ryegrass, Lolium multiflorum), Foxtail, Giant (giant foxtail, Setaria faberi), and pigweed (Amaranthus retroflexus) were planted into a blend of loam soil and sand and treated preemergence with a directed soil spray using test chemicals formulated in a non-phytotoxic solvent mixture which included a surfactant. At the same time, plants selected from these weed species and also wheat (Triticum aestivum), corn (Zea mays), blackgrass (Alopecurus myosuroides), and galium (catchweed bedstraw, Galium aparine) were planted in pots containing the same blend of loam soil and sand and treated with postemergence applications of test chemicals formulated in the same manner. Plants ranged in height from 2 to 10 cm and were in the one- to two-leaf stage for the postemergence treatment. […] A dash (-) response means no test result.

kochia (Bassia scoparia) [2] = assay: Test A preemergence, kochia; settings: Preemergence; for Kochia plant response rating: 125 g ai/ha, visual injury on 0 to 100 scale (0 no effect, 100 complete control), approximately 10 days; for Plant response rating, Kochia: 500 g ai/ha, 0 to 100 scale (0 no effect, 100 complete control)
Text: as §1

[3] = tested on: ragweed (common ragweed, Ambrosia artemisiifolia); assay: Test A preemergence, ragweed; settings: Preemergence; for Ragweed plant response rating: 125 g ai/ha, visual injury on 0 to 100 scale (0 no effect, 100 complete control), approximately 10 days; for Plant response rating, Ragweed: 500 g ai/ha, 0 to 100 scale (0 no effect, 100 complete control)
Text: as §1

[4] = tested on: Foxtail, Giant (giant foxtail, Setaria faberi); assay: Test A preemergence, Foxtail, Giant; settings: Preemergence; for Foxtail, Giant plant response rating: 125 g ai/ha, visual injury on 0 to 100 scale (0 no effect, 100 complete control), approximately 10 days; for Plant response rating, Foxtail, Giant: 500 g ai/ha, 0 to 100 scale (0 no effect, 100 complete control)
Text: as §1

[5] = tested on: barnyardgrass (Echinochloa crus-galli); assay: Test A postemergence, barnyardgrass; settings: Postemergence, 0 to 100 scale (0 no effect, 100 complete control); for Plant response rating, Barnyardgrass: 125 g ai/ha; for Barnyardgrass plant response rating: 500 g ai/ha, visual injury vs untreated controls after approx. 10 days
Text: as §1

[6] = tested on: galium (catchweed bedstraw, Galium aparine); assay: Test A postemergence, galium; settings: Postemergence, 0 to 100 scale (0 no effect, 100 complete control); for Plant response rating, Galium: 125 g ai/ha; for Galium plant response rating: 500 g ai/ha, visual injury vs untreated controls after approx. 10 days
Text: as §1

[7] = tested on: blackgrass (Alopecurus myosuroides); assay: Test A postemergence, blackgrass; settings: Postemergence, 0 to 100 scale (0 no effect, 100 complete control); for Plant response rating, Blackgrass: 125 g ai/ha; for Blackgrass plant response rating: 500 g ai/ha, visual injury vs untreated controls after approx. 10 days
Text: as §1

kochia (Bassia scoparia) [8] = assay: Test A postemergence, kochia; settings: Postemergence, 0 to 100 scale (0 no effect, 100 complete control); for Plant response rating, Kochia: 125 g ai/ha; for Kochia plant response rating: 500 g ai/ha, visual injury vs untreated controls after approx. 10 days
Text: as §1

[9] = tested on: ragweed (common ragweed, Ambrosia artemisiifolia); assay: Test A postemergence, ragweed; settings: Postemergence, 0 to 100 scale (0 no effect, 100 complete control); for Plant response rating, Ragweed: 125 g ai/ha; for Ragweed plant response rating: 500 g ai/ha, visual injury vs untreated controls after approx. 10 days
Text: as §1

corn (Zea mays) = assay: Test A postemergence, corn; settings: Postemergence, 0 to 100 scale (0 no effect, 100 complete control); for Plant response rating, Corn: 125 g ai/ha; for Corn plant response rating: 500 g ai/ha, visual injury vs untreated controls after approx. 10 days
Text: as §1

[10] = tested on: wheat (Triticum aestivum); assay: Test A postemergence, wheat; settings: Postemergence, 0 to 100 scale (0 no effect, 100 complete control); for Plant response rating, Wheat: 125 g ai/ha; for Wheat plant response rating: 500 g ai/ha, visual injury vs untreated controls after approx. 10 days
Text: as §1

[11] = tested on: pigweed (Amaranthus retroflexus); assay: Test A postemergence, pigweed; settings: Postemergence, 0 to 100 scale (0 no effect, 100 complete control); for Plant response rating, Pigweed: 125 g ai/ha; for Pigweed plant response rating: 500 g ai/ha, visual injury vs untreated controls after approx. 10 days
Text: as §1

[12] = tested on: Ryegrass, Italian (Italian ryegrass, Lolium multiflorum); assay: Test A preemergence, Ryegrass, Italian; settings: Preemergence; for Ryegrass, Italian plant response rating: 125 g ai/ha, visual injury on 0 to 100 scale (0 no effect, 100 complete control), approximately 10 days; for Plant response rating, Ryegrass, Italian: 500 g ai/ha, 0 to 100 scale (0 no effect, 100 complete control)
Text: as §1

[13] = tested on: Foxtail, Giant (giant foxtail, Setaria faberi); assay: Test A postemergence, Foxtail, Giant; settings: Postemergence, 0 to 100 scale (0 no effect, 100 complete control); for Plant response rating, Foxtail, Giant: 125 g ai/ha; for Foxtail, Giant plant response rating: 500 g ai/ha, visual injury vs untreated controls after approx. 10 days
Text: as §1

[14] = tested on: Ryegrass, Italian (Italian ryegrass, Lolium multiflorum); assay: Test A postemergence, Ryegrass, Italian; settings: Postemergence, 0 to 100 scale (0 no effect, 100 complete control); for Plant response rating, Ryegrass, Italian: 125 g ai/ha; for Ryegrass, Italian plant response rating: 500 g ai/ha, visual injury vs untreated controls after approx. 10 days
Text: as §1

| SMILES | Barnyardgrass plant response rating [1] | Plant response rating, Barnyardgrass [1] | Kochia plant response rating (kochia (Bassia scoparia) [2]) | Plant response rating, Kochia (kochia (Bassia scoparia) [2]) | Ragweed plant response rating [3] | Plant response rating, Ragweed [3] | Foxtail, Giant plant response rating [4] | Plant response rating, Foxtail, Giant [4] | Plant response rating, Barnyardgrass [5] | Barnyardgrass plant response rating [5] | Plant response rating, Galium [6] | Galium plant response rating [6] | Plant response rating, Blackgrass [7] | Blackgrass plant response rating [7] | Plant response rating, Kochia (kochia (Bassia scoparia) [8]) | Kochia plant response rating (kochia (Bassia scoparia) [8]) | Plant response rating, Ragweed [9] | Ragweed plant response rating [9] | Plant response rating, Corn (corn (Zea mays)) | Corn plant response rating (corn (Zea mays)) | other results |
| --- | --- | --- | --- | --- | --- | --- | --- | --- | --- | --- | --- | --- | --- | --- | --- | --- | --- | --- | --- | --- | --- |
| Cc1cc(C)c(C2=NOC3(CCC(F)(F)CC3)C2)cc1NS(=O)(=O)C(F)(F)F [Compound 172] | 90 | 90 | 60 | 90 | 40 | 90 | 90 | 100 | 60 | 80 | 90 | 90 | 0 | 40 | 40 | 80 | 60 | 80 | 40 | 70 | Plant response rating, Wheat [10]: 30; Wheat plant response rating [10]: 70; Plant response rating, Pigweed [11]: 70; Pigweed plant response rating [11]: 90; Ryegrass, Italian plant response rating [12]: 100; Plant response rating, Ryegrass, Italian [12]: 100; Plant response rating, Foxtail, Giant [13]: 20; Foxtail, Giant plant response rating [13]: 80; Plant response rating, Ryegrass, Italian [14]: 60; Ryegrass, Italian plant response rating [14]: 80 |
| Cc1cc(C)c(C2=NOC3(CCSCC3)C2)cc1NS(=O)(=O)C(F)(F)F [Compound 176] | 70 | 90 | 70 | 90 | 40 | 90 | 100 | 100 | 80 | 90 | 90 | 90 | 40 | 70 | 40 | 50 | 60 | 90 | 70 | 80 | Plant response rating, Wheat [10]: 60; Wheat plant response rating [10]: 60; Plant response rating, Pigweed [11]: 60; Pigweed plant response rating [11]: 90; Ryegrass, Italian plant response rating [12]: 90; Plant response rating, Ryegrass, Italian [12]: 100; Plant response rating, Foxtail, Giant [13]: 90; Foxtail, Giant plant response rating [13]: 90; Plant response rating, Ryegrass, Italian [14]: 60; Ryegrass, Italian plant response rating [14]: 80 |
| C#CCN(C)C(=O)c1cc(NS(=O)(=O)C(F)(F)F)c(C)c(F)c1C [Compound 179] | 90 | 90 | 90 | 90 | 90 | 90 | 80 | 100 | 90 | 90 | 90 | 90 | 20 | 40 | 60 | 70 | 90 | 90 | 20 | 80 | Plant response rating, Wheat [10]: 0; Wheat plant response rating [10]: 60; Plant response rating, Pigweed [11]: 80; Pigweed plant response rating [11]: 90; Ryegrass, Italian plant response rating [12]: 100; Plant response rating, Ryegrass, Italian [12]: 100; Plant response rating, Foxtail, Giant [13]: 70; Foxtail, Giant plant response rating [13]: 90; Plant response rating, Ryegrass, Italian [14]: 40; Ryegrass, Italian plant response rating [14]: 80 |
